Like-named read-outs stand apart in the source and are kept apart here.
What was measured:
[1] = test system: HBV (HepG2.117 cell line, inducibly HBV producing); test: Anti-HBV activity: intracellular HBV DNA by real-time PCR in HepG2.117 cells after 3 days of treatment; format: cell-based, hepatitis B virus
Method in brief: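 HepG2.117 cells (Tet-off, inducible HBV production) were induced to replicate HBV by doxycycline absence, then treated with serially diluted compound for 3 days. Activity was quantified as intracellular HBV DNA by real-time PCR using an HBV-specific primer set and probe.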

in vitro = format: cell-based; conditions: human, HepG2 or HepG2.117 cells, mean value
Method in brief: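 Luminescent ATP quantitation served as the viability endpoint following a 3- or 4-day incubation with test compounds.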

[2] = Hepatitis B virus, HepG2.117, 72 h, HepG2.117 cells, 3 days of treatment, intracellular HBV DNA by real-time PCR; mean value; read-out: EC50 (μM, mean value)
[3] = 3-days incubation (unmarked values), ATPlite
[4] = Hepatitis B virus, HepG2.117, 72 h, HepG2.117 cells, intracellular HBV DNA by real-time PCR, 3 days of treatment, mean value; read-out: EC50 (μM, mean value)
[5] = ATPlite, 3-days incubation (not marked with *)

Row | SMILES | EC50 [1, 2] [µM] | CC50 at 3 days (in vitro; [3]) [µM] | EC50 [1, 4] [µM] | CC50 at 3 days (in vitro; [5]) [µM] | CC50 at 3 days (in vitro; 3-days incubation (unmarked values), ATPlite viability) [µM]
1 | CCC(C)Nc1nc2c(c(=O)n1-c1ccccc1OC)CCN(C(=O)c1ccc(Cl)c(Cl)c1)C2 (centres unmarked) [Compound C49, 2-[(butan-2-yl)amino]-7-(3,4-dichlorobenzoyl)-3-(2-methoxyphenyl)-5,6,7,8-tetrahydropyrido[3,4-d]pyrimidin-4(3H)-one] | 2.41 | 26.8 | – | – | –
2 | COc1ccc(CNc2nc3c(c(=O)[nH]2)C[C@@H](C)N(C(=O)c2ccc(Cl)c(Cl)c2)C3)cc1 [Compound C63A, (6R)-7-(3,4-dichlorobenzoyl)-2-{[(4-methoxyphenyl)methyl]amino}-6-methyl-5,6,7,8-tetrahydropyrido[3,4-d]pyrimidin-4(3H)-one] | 3.58 | 30.4 | – | – | –
3 | COc1ccccc1-n1c(N[C@@H](C)c2ccccc2)nc2c(c1=O)CCN(C(=O)c1ccc(Cl)c(Cl)c1)C2 [Compound C35, 7-(3,4-dichlorobenzoyl)-3-(2-methoxyphenyl)-2-{[(1S)-1-phenylethyl]amino}-5,6,7,8-tetrahydropyrido[3,4-d]pyrimidin-4(3H)-one] | 1.41 | 33.2 | – | – | –
4 | COc1ccc(CNc2nc3c(c(=O)n2-c2ccnnc2)CCN(C(=O)c2ccc(Cl)c(Cl)c2)C3)cc1 [Compound C135, 7-(3,4-dichlorobenzoyl)-2-{[(4-methoxyphenyl)methyl]amino}-3-(pyridazin-4-yl)-5,6,7,8-tetrahydropyrido[3,4-d]pyrimidin-4(3H)-one] | 1.13 | 23.3 | – | – | –
5 | CNC(=O)c1ccc(-n2c(N[C@H](C)CC(=O)O)nc3c(c2=O)C[C@@H](C)N(C(=O)c2ccc(Cl)c(Cl)c2)C3)cc1 [Compound C336, (3R)-3-({(6R)-7-(3,4-dichlorobenzoyl)-6-methyl-3-[4-(methylcarbamoyl)phenyl]-4-oxo-3,4,5,6,7,8-hexahydropyrido[3,4-d]pyrimidin-2-yl}amino)butanoic acid] | 7.66 | > 50 | – | – | –
6 | COc1cc(-n2c(NC(C)C)nc3c(c2=O)CCN(C(=O)c2ccc(Cl)c(Cl)c2)C3)cc(S(C)(=O)=O)c1 [Compound C88, 7-(3,4-dichlorobenzoyl)-3-[3-(methanesulfonyl)-5-methoxyphenyl]-2-[(propan-2-yl)amino]-5,6,7,8-tetrahydropyrido[3,4-d]pyrimidin-4(3H)-one] | 4.99 | > 50 | – | – | –
7 | CNC(=O)c1ccc(-n2c(N[C@H](C)c3nc[nH]n3)nc3c(c2=O)C[C@@H](C)N(C(=O)c2ccc(Cl)c(Cl)c2)C3)cc1 (single isomer, unassigned) [Compound C439a] | – | – | > 10 | > 50 | –
8 | CNC(=O)c1ccc(-n2c(NC(C)C)nc3c(c2=O)C[C@@H](C)N(C(=O)c2ccc(Cl)c(C(F)(F)F)c2)C3)nn1 [Compound C684] | – | – | 0.06 | > 50 | –
9 | CNC(=O)c1ccc(-n2c(N[C@H](C)c3cnccn3)nc3c(c2=O)C[C@@H](C)N(C(=O)c2ccc(Cl)c(C(F)(F)F)c2)C3)cc1 (single isomer, unassigned) [Compound C665a] | – | – | 0.49 | > 50 | –
10 | CNC(=O)c1nnc(-n2c(NC(C)C)nc3c(c2=O)C[C@@H](C)N(C(=O)c2ccc(Cl)c(Cl)c2)C3)[nH]1 [Compound C374] | 1.49 | > 50 | – | – | –
11 | CNC(=O)c1ccc(-n2c(NCc3ccc(-n4cncn4)cc3)nc3c(c2=O)C[C@@H](C)N(C(=O)c2ccc(Cl)c(Cl)c2)C3)cc1 [Compound C555] | – | – | 1.33 | > 50 | –
12 | Cc1[nH]cnc1-c1ccc(-n2c(NC(C)C)nc3c(c2=O)C[C@@H](C)N(C(=O)c2ccc(Cl)c(Cl)c2)C3)cc1 [Compound C248, (6R)-7-(3,4-dichlorobenzoyl)-6-methyl-3-[4-(5-methyl-1H-imidazol-4-yl)phenyl]-2-[(propan-2-yl)amino]-5,6,7,8-tetrahydropyrido[3,4-d]pyrimidin-4(3H)-one] | 0.13 | 31.1 | – | – | –
13 | CNC(=O)c1ccc(-n2c(NC(C)C(C)(C)C)nc3c(c2=O)C[C@@H](C)N(C(=O)c2ccc(Cl)c(Cl)c2)C3)cc1 (some centres unmarked) [Compound C459] | – | – | 0.24 | 28.6 | –
14 | CC(C)Nc1nc2c(c(=O)n1-c1ccc(C(=O)NCCN3CCOCC3)cc1)C[C@@H](C)N(C(=O)c1ccc(Cl)c(Cl)c1)C2 [Compound C203, 4-[(6R)-7-(3,4-dichlorobenzoyl)-6-methyl-4-oxo-2-[(propan-2-yl)amino]-5,6,7,8-tetrahydropyrido[3,4-d]pyrimidin-3(4H)-yl]-N-[2-(morpholin-4-yl)ethyl]benzamide] | 0.15 | > 50 | – | – | –
15 | CC(C)Nc1nc2c(c(=O)n1-c1ccc(N3CC[C@@H](O)C3)cc1)C[C@@H](C)N(C(=O)c1ccc(Cl)c(Cl)c1)C2 [Compound C201, (6R)-7-(3,4-dichlorobenzoyl)-3-{4-[(3R)-3-hydroxypyrrolidin-1-yl]phenyl}-6-methyl-2-[(propan-2-yl)amino]-5,6,7,8-tetrahydropyrido[3,4-d]pyrimidin-4(3H)-one] | 0.2 | 36.8 | – | – | –
16 | CNC(=O)c1ccc(-n2c(N[C@H](C)c3ccc(C(F)(F)F)cc3)nc3c(c2=O)C[C@@H](C)N(C(=O)c2ccc(Cl)c(Cl)c2)C3)cc1 (single isomer, unassigned) [Compound C413a] | – | – | 0.06 | 9 | –
17 | CNC(=O)c1cc(Cl)c(-n2c(NC(C)C)nc3c(c2=O)C[C@@H](C)N(C(=O)c2ccc(Cl)c(Cl)c2)C3)cc1OC [Compound C322, 5-chloro-4-[(6R)-7-(3,4-dichlorobenzoyl)-6-methyl-4-oxo-2-[(propan-2-yl)amino]-5,6,7,8-tetrahydropyrido[3,4-d]pyrimidin-3(4H)-yl]-2-methoxy-N-methylbenzamide] | 0.28 | 24.2 | – | – | –
18 | CNC(=O)c1ccc(-n2c(NCc3ncn(-c4ccccc4)n3)nc3c(c2=O)C[C@@H](C)N(C(=O)c2ccc(Cl)c(Cl)c2)C3)cc1 [Compound C556] | – | – | 0.57 | 25.6 | –
19 | CNC(=O)c1ccc(-n2c(N[C@H](C)c3ccccn3)nc3c(c2=O)C[C@@H](C)N(C(=O)c2ccc(Cl)c(Cl)c2)C3)cc1 (single isomer, unassigned) [Compound C320, 4-[(6R)-7-(3,4-dichlorobenzoyl)-6-methyl-4-oxo-2-{[(1*R)-1-(pyridin-2-yl)ethyl]amino}-5,6,7,8-tetrahydropyrido[3,4-d]pyrimidin-3(4H)-yl]-N-methylbenzamide] | 0.27 | > 50 | – | – | –
20 | CNC(=O)c1ccc(-n2c(N3CC[C@H]3C)nc3c(c2=O)C[C@@H](C)N(C(=O)c2ccc(Cl)c(Cl)c2)C3)cc1 (single isomer, unassigned) [Compound C311, 4-[(6R)-7-(3,4-dichlorobenzoyl)-6-methyl-2-[(2*R)-2-methylazetidin-1-yl]-4-oxo-5,6,7,8-tetrahydropyrido[3,4-d]pyrimidin-3(4H)-yl]-N-methylbenzamide] | 0.09 | > 50 | – | – | –
21 | CNC(=O)c1cc(Cl)c(-n2c(NC(C)C)nc3c(c2=O)C[C@@H](C)N(C(=O)c2ccc(Cl)c(C(F)(F)F)c2)C3)c(Cl)c1 [Compound C688] | – | – | 0.04 | 29.3 | –
22 | CNC(=O)c1cc(-n2c(NC(C)C)nc3c(c2=O)C[C@@H](C)N(C(=O)c2cccc(C(F)(F)F)c2)C3)n(C)n1 [Compound C646] | – | – | 1.62 | > 50 | –
23 | CNC(=O)c1ccc(-n2c(NC(C)C)nc3c(c2=O)C[C@@H](C)N(C(=O)c2ccc4c(c2)C=CS4(=O)=O)C3)cc1 [Compound C604] | – | – | > 25 | > 50 | –
24 | CNC(=O)c1ccc(-n2c(N[C@@H](C)C3CC3)nc3c(c2=O)C[C@@H](C)N(C(=O)c2ccc(Cl)c(C(F)F)c2)C3)cc1 [Compound C699, 4-((R)-7-(4-chloro-3-(difluoromethyl)benzoyl)-2-(((S)-1-cyclopropylethyl)amino)-6-methyl-4-oxo-5,6,7,8-tetrahydropyrido[3,4-d]pyrimidin-3(4H)-yl)-N-methylbenzamide] | 0.04 | – | – | – | > 50
25 | CC(C)Nc1nc2c(c(=O)n1-c1ccc(S(C)(=O)=O)cc1)CCN(C(=O)c1ccc(C(F)(F)F)c(Cl)c1)C2 [Compound C194, 7-[3-chloro-4-(trifluoromethyl)benzoyl]-3-[4-(methanesulfonyl)phenyl]-2-[(propan-2-yl)amino]-5,6,7,8-tetrahydropyrido[3,4-d]pyrimidin-4(3H)-one] | 0.55 | > 50 | – | – | –
26 | CNC(=O)c1ccc(-n2c(NC(C)C)nc3c(c2=O)C[C@@H](C)N(C(=O)c2ccc(Cl)c(Cl)c2)C3)cc1F [Compound C274, 4-[(6R)-7-(3,4-dichlorobenzoyl)-6-methyl-4-oxo-2-[(propan-2-yl)amino]-5,6,7,8-tetrahydropyrido[3,4-d]pyrimidin-3(4H)-yl]-2-fluoro-N-methylbenzamide] | 0.09 | > 50 | – | – | –
27 | CNC(=O)c1ccc(-n2c(NCc3c[nH]nn3)nc3c(c2=O)C[C@@H](C)N(C(=O)c2ccc(Cl)c(Cl)c2)C3)cc1 [Compound C423] | – | – | > 7.4 | > 50 | –
28 | CNC(=O)c1ccc(-n2c(N[C@@H](C)c3ccccn3)nc3c(c2=O)C[C@@H](C)N(C(=O)c2ccc(Cl)c(Cl)c2)C3)cc1 (single isomer, unassigned) [Compound C321, 4-[(6R)-7-(3,4-dichlorobenzoyl)-6-methyl-4-oxo-2-{[(1*S)-1-(pyridin-2-yl)ethyl]amino}-5,6,7,8-tetrahydropyrido[3,4-d]pyrimidin-3(4H)-yl]-N-methylbenzamide] | 0.94 | > 50 | – | – | –

Reference: patent US20230091047A1 (priority 2019, published 2023)
